# Data as given in patent US8829007B2 (priority 2009, dated 2014).
# Structures can show the parent of a compound that is named as a salt. Where two headings read alike, the source gives them in different places.
# How the values were obtained:
# [1] = tested on: influenza A virus (A/PR/8/34); test: microbe, parasite or virus in culture; assay type: cell-based; conditions: read-out: IC50 (mean all)
# [2] = tested on: A/PR/8/34 influenza virus; test: microbe, parasite or virus in culture; assay type: cell-based; conditions: read-out: EC50 (mean all)
# [3] = Influenza A virus, PR/8, MDCK, CPE assay, A/PR/8/34 infected MDCK cells, class symbols
# [4] = Influenza A virus, PR/8, MDCK, bDNA assay, A/PR/8/34 influenza virus replication in MDCK cells, class symbols
# [5] = CPE assay, A/PR/8/34 infected MDCK cells, class symbols
# [6] = bDNA assay, A/PR/8/34 influenza virus replication in MDCK cells, class symbols
structure (smiles),measurement,setting,value
COCCC(=O)N[C@@H]1CCC[C@H](Nc2nc(-c3c[nH]c4ncc(Cl)cc34)ncc2F)C1 [Compound 611],IC50,[1]; [3],< 5 µM
same,EC50,[2]; [4],< 5 µM
NC(=O)CN1CCCC(Nc2nc(-c3c[nH]c4ncc(F)cc34)ncc2F)C1 (centres unmarked) [Compound 613],IC50,[1]; [5],< 5 µM
same,EC50,[2]; [6],< 5 µM
OC(CN1CCCC(Nc2nc(-c3c[nH]c4ncc(Cl)cc34)ncc2F)C1)C(F)(F)F (centres unmarked) [Compound 614],IC50,[1]; [5],< 5 µM
same,EC50,[2]; [6],< 5 µM
O[C@H]1[C@@H](Nc2nc(-c3c[nH]c4ncc(Cl)cc34)ncc2F)CCC[C@@H]1O [Compound 615],IC50,[1]; [3],< 5 µM
same,EC50,[2]; [4],< 5 µM
O[C@H]1[C@H](O)CCC[C@H]1Nc1nc(-c2c[nH]c3ncc(Cl)cc23)ncc1F [Compound 616],IC50,[1]; [3],> 10 µM
same,EC50,[2]; [4],> 3.3 µM
C#CC1(O)CCCC(Nc2nc(-c3c[nH]c4ncc(Cl)cc34)ncc2F)C1 (centres unmarked) [Compound 617],IC50,[1]; [5],< 5 µM
same,EC50,[2]; [6],< 5 µM
C#CC1(O)CCCC(Nc2nc(-c3c[nH]c4ncc(Cl)cc34)ncc2F)C1 (centres unmarked) [Compound 618],IC50,[1]; [5],< 5 µM
same,EC50,[2]; [6],< 5 µM
O=C1NCC(CN2CCCC(Nc3nc(-c4c[nH]c5ncc(Cl)cc45)ncc3F)C2)O1 (centres unmarked) [Compound 619],IC50,[1]; [5],< 5 µM
same,EC50,[2]; [6],< 5 µM
Cc1cnc(-c2c[nH]c3ncc(Cl)cc23)nc1N[C@H]1CCCN(CC(N)=O)C1 [Compound 620],IC50,[1]; [3],5 to 20 µM
same,EC50,[2]; [4],< 5 µM
Fc1cnc(-c2c[nH]c3ncc(Cl)cc23)nc1NC1CCCN(CC2CCOCC2)C1 (centres unmarked) [Compound 621],IC50,[1]; [5],< 5 µM
same,EC50,[2]; [6],< 5 µM
Fc1cnc(-c2c[nH]c3ncc(Cl)cc23)nc1NC1CCCN(CC2CCOC2)C1 (centres unmarked) [Compound 622],IC50,[1]; [5],< 5 µM
same,EC50,[2]; [6],< 5 µM
O=C(C(O)CO)N1CCCC(Nc2nc(-c3c[nH]c4ncc(Cl)cc34)ncc2F)C1 (centres unmarked) [Compound 623],IC50,[1]; [5],< 5 µM
same,EC50,[2]; [6],< 5 µM
O[C@@H]1[C@@H](O)CCC[C@H]1Nc1nc(-c2c[nH]c3ncc(Cl)cc23)ncc1F [Compound 624],IC50,[1]; [3],< 5 µM
same,EC50,[2]; [4],5 to 10 µM
O[C@H]1[C@H](O)CCC[C@@H]1Nc1nc(-c2c[nH]c3ncc(Cl)cc23)ncc1F [Compound 625],IC50,[1]; [3],< 5 µM
same,EC50,[2]; [4],< 5 µM
CCC1(O)CCCC(Nc2nc(-c3c[nH]c4ncc(Cl)cc34)ncc2F)C1 (centres unmarked) [Compound 626],IC50,[1]; [3],< 5 µM
same,EC50,[2]; [4],< 5 µM
C=CC1(O)CCCC(Nc2nc(-c3c[nH]c4ncc(Cl)cc34)ncc2F)C1 (centres unmarked) [Compound 627],IC50,[1]; [5],< 5 µM
same,EC50,[2]; [6],< 5 µM
C=CC1(O)CCCC(Nc2nc(-c3c[nH]c4ncc(Cl)cc34)ncc2F)C1 (centres unmarked) [Compound 628],IC50,[1]; [5],< 5 µM
same,EC50,[2]; [6],< 5 µM
"CC(C)(C)c1nc(-c2c[nH]c3ncc(Cl)cc23)nc(N[C@H]2CCCC[C@@H]2C(=O)O)c1F [Compound 629, (1S,2S)-2-(6-tert-butyl-2-(5-chloro-1H-pyrrolo[2,3-b]pyridin-3-yl)-5-fluoropyrimidin-4-ylamino)cyclohexanecarboxylic acid]",IC50,[1]; [3],< 5 µM
same,EC50,[2]; [4],< 5 µM
O=C(O)[C@@H]1CCC[C@H](Nc2nc(-c3c[nH]c4ncc(Cl)cc34)ncc2F)C1 [Compound 630],IC50,[1]; [3],< 5 µM
same,EC50,[2]; [4],< 5 µM
O[C@H]1[C@@H](O)CCC[C@H]1Nc1nc(-c2c[nH]c3ncc(Cl)cc23)ncc1F [Compound 631],IC50,[1]; [3],< 5 µM
same,EC50,[2]; [4],< 5 µM
O[C@@H]1[C@H](O)CCC[C@@H]1Nc1nc(-c2c[nH]c3ncc(Cl)cc23)ncc1F [Compound 632],IC50,[1]; [3],< 5 µM
same,EC50,[2]; [4],< 5 µM
"O=C(N[C@@H]1CCC[C@H](Nc2nc(-c3c[nH]c4ncc(Cl)cc34)ncc2F)C1)C1CCCOC1 (stereo partly drawn) [Compound 633, N-[(1R,3S)-3-[[2-(5-chloro-1H-pyrrolo[2,3-b]pyridin-3-yl)-5-fluoro-pyrimidin-4-yl]amino]cyclohexyl]tetrahydropyran-3-carboxamide hydrochloride]",IC50,[1]; [3],< 5 µM
same,EC50,[2]; [4],< 5 µM
"O=C(CCO)N[C@@H]1CCC[C@H](Nc2nc(-c3c[nH]c4ncc(Cl)cc34)ncc2F)C1 [Compound 634, N-[(1R,3S)-3-[[2-(5-chloro-1H-pyrrolo[2,3-b]pyridin-3-yl)-5-fluoro-pyrimidin-4-yl]amino]cyclohexyl]-3-hydroxy-propanamide hydrochloride]",IC50,[1]; [3],< 5 µM
same,EC50,[2]; [4],< 5 µM
"CC1(C(=O)N[C@@H]2CCC[C@H](Nc3nc(-c4c[nH]c5ncc(Cl)cc45)ncc3F)C2)COC1 [Compound 635, N-[(1R,3S)-3-[[2-(5-chloro-1H-pyrrolo[2,3-b]pyridin-3-yl)-5-fluoro-pyrimidin-4-yl]amino]cyclohexyl]-3-methyl-oxetane-3-carboxamide hydrochloride]",IC50,[1]; [3],< 5 µM
same,EC50,[2]; [4],< 5 µM
"O=C(N[C@@H]1CCC[C@H](Nc2nc(-c3c[nH]c4ncc(Cl)cc34)ncc2F)C1)C1CCOCC1 [Compound 636, N-[(1R,3S)-3-[[2-(5-chloro-1H-pyrrolo[2,3-b]pyridin-3-yl)-5-fluoro-pyrimidin-4-yl]amino]cyclohexyl]tetrahydropyran-4-carboxamide hydrochloride]",IC50,[1]; [3],< 5 µM
same,EC50,[2]; [4],< 5 µM
"O=C(N[C@@H]1CCC[C@H](Nc2nc(-c3c[nH]c4ncc(Cl)cc34)ncc2F)C1)C1CNCCO1 (stereo partly drawn) [Compound 637, N-[(1R,3S)-3-[[2-(5-chloro-1H-pyrrolo[2,3-b]pyridin-3-yl)-5-fluoro-pyrimidin-4-yl]amino]cyclohexyl]morpholine-2-carboxamide bishydrochloride]",IC50,[1]; [3],< 5 µM
same,EC50,[2]; [4],< 5 µM
"O=C(N[C@@H]1CCC[C@H](Nc2nc(-c3c[nH]c4ncc(Cl)cc34)ncc2F)C1)C1CCCO1 (stereo partly drawn) [Compound 638, N-[1R,3S)-3-[[2-(5-chloro-1H-pyrrolo[2,3-b]pyridin-3-yl)-5-fluoro-pyrimidin-4-yl]amino]cyclohexyl]tetrahydrofuran-2-carboxamide hydrochloride]",IC50,[1]; [3],< 5 µM
same,EC50,[2]; [4],< 5 µM
"O=C(N[C@@H]1CCC[C@H](Nc2nc(-c3c[nH]c4ncc(Cl)cc34)ncc2F)C1)C1CCNCC1 [Compound 639, N-[(1R,3S)-3-[[2-(5-chloro-1H-pyrrolo[2,3-b]pyridin-3-yl)-5-fluoro-pyrimidin-4-yl]amino]cyclohexyl]piperidine-4-carboxamide bishydrochloride]",IC50,"[1]; Influenza A virus, PR/8, MDCK",> 10 µM
same,EC50,"[2]; Influenza A virus, PR/8, MDCK",> 3.3 µM
"CC(O)CC(=O)N[C@@H]1CCC[C@H](Nc2nc(-c3c[nH]c4ncc(Cl)cc34)ncc2F)C1 (stereo partly drawn) [Compound 640, N-[(1R,3S)-3-[[2-(5-chloro-1H-pyrrolo[2,3-b]pyridin-3-yl)-5-fluoro-pyrimidin-4-yl]amino]cyclohexyl]-3-hydroxy-butanamide hydrochloride]",IC50,[1]; [3],< 5 µM
same,EC50,[2]; [4],< 5 µM
"CC(O)C(=O)N[C@@H]1CCC[C@H](Nc2nc(-c3c[nH]c4ncc(Cl)cc34)ncc2F)C1 (stereo partly drawn) [Compound 642, N-[(1R,3S)-3-[[2-(5-chloro-1H-pyrrolo[2,3-b]pyridin-3-yl)-5-fluoro-pyrimidin-4-yl]amino]cyclohexyl]-2-hydroxy-propanamide hydrochloride]",IC50,[1]; [3],< 5 µM
same,EC50,[2]; [4],< 5 µM
OCC1(O)CCCC(Nc2nc(-c3c[nH]c4ncc(Cl)cc34)ncc2F)C1 (centres unmarked) [Compound 646],IC50,[1]; [3],< 5 µM
same,EC50,[2]; [4],< 5 µM
O=C(N[C@@H]1CCC[C@H](Nc2nc(-c3c[nH]c4ncc(Cl)cc34)ncc2F)C1)N1CCOCC1 [Compound 647],IC50,[1]; [3],< 5 µM
same,EC50,[2]; [4],< 5 µM
O=C(N[C@@H]1CCC[C@H](Nc2nc(-c3c[nH]c4ncc(Cl)cc34)ncc2F)C1)OCC1CCOC1 (some centres unmarked) [Compound 648],IC50,[1]; [3],< 5 µM
same,EC50,[2]; [4],< 5 µM
O=C(N[C@@H]1CCC[C@H](Nc2nc(-c3c[nH]c4ncc(Cl)cc34)ncc2F)C1)O[C@H]1CCOC1 [Compound 649],IC50,[1]; [3],< 5 µM
same,EC50,[2]; [4],< 5 µM
"CC(C)(CO)C(=O)N[C@@H]1CCC[C@H](Nc2nc(-c3c[nH]c4ncc(Cl)cc34)ncc2F)C1 [Compound 650, N-[(1R,3S)-3-[[2-(5-chloro-1H-pyrrolo[2,3-b]pyridin-3-yl)-5-fluoro-pyrimidin-4-yl]amino]cyclohexyl]-3-hydroxy-2,2-dimethyl-propanamide hydrochloride]",IC50,[1]; [3],< 5 µM
same,EC50,[2]; [4],< 5 µM
"O=C(N[C@@H]1CCC[C@H](Nc2nc(-c3c[nH]c4ncc(Cl)cc34)ncc2F)C1)C1CCCCO1 (stereo partly drawn) [Compound 651, N-[(1R,3S)-3-[[2-(5-chloro-1H-pyrrolo[2,3-b]pyridin-3-yl)-5-fluoro-pyrimidin-4-yl]amino]cyclohexyl]tetrahydropyran-2-carboxamide hydrochloride]",IC50,[1]; [3],< 5 µM
same,EC50,[2]; [4],< 5 µM
"O=C(N[C@@H]1CCC[C@H](Nc2nc(-c3c[nH]c4ncc(Cl)cc34)ncc2F)C1)C1CCOC1 (stereo partly drawn) [Compound 652, N-[(1R,3S)-3-[[2-(5-chloro-1H-pyrrolo[2,3-b]pyridin-3-yl)-5-fluoro-pyrimidin-4-yl]amino]cyclohexyl]tetrahydrofuran-3-carboxamide hydrochloride]",IC50,[1]; [3],< 5 µM
same,EC50,[2]; [4],< 5 µM
N#Cc1cnc(-c2c[nH]c3ncc(Cl)cc23)nc1N[C@H]1CCCN(CC(N)=O)C1 [Compound 654],IC50,[1]; [3],5 to 20 µM
same,EC50,[2]; [4],5 to 10 µM
Cc1ccc(S(=O)(=O)n2cc(-c3ncc(F)c(N[C@H]4CCCC(C)(O)C4)n3)c3cc(Cl)cnc32)cc1 (some centres unmarked) [Compound 655],IC50,[1]; [5],< 5 µM
same,EC50,[2]; [6],< 5 µM
Cc1ccc(S(=O)(=O)n2cc(-c3ncc(F)c(N[C@H]4CCCC(C)(O)C4)n3)c3cc(Cl)cnc32)cc1 (some centres unmarked) [Compound 656],IC50,[1]; [5],< 5 µM
same,EC50,[2]; [6],< 5 µM
OC[C@H]1CC(Nc2nc(-c3c[nH]c4ncc(Cl)cc34)ncc2F)[C@H](O)[C@@H]1O (some centres unmarked) [Compound 657],IC50,[1]; [3],> 10 µM
same,EC50,[2]; [4],> 3.3 µM
O=C(C1CCCCO1)N1CCCC(Nc2nc(-c3c[nH]c4ncc(Cl)cc34)ncc2F)C1 (centres unmarked) [Compound 658],IC50,[1]; [5],< 5 µM
same,EC50,[2]; [6],< 5 µM
O=C(C1CCCO1)N1CCCC(Nc2nc(-c3c[nH]c4ncc(Cl)cc34)ncc2F)C1 (centres unmarked) [Compound 660],IC50,[1]; [5],< 5 µM
same,EC50,[2]; [6],< 5 µM
